Molecular target: T1, Lipase (Bacteroides thetaiotaomicron, UniProt Q8A3J3)
T1 sequence (Q8A3J3 whole entry): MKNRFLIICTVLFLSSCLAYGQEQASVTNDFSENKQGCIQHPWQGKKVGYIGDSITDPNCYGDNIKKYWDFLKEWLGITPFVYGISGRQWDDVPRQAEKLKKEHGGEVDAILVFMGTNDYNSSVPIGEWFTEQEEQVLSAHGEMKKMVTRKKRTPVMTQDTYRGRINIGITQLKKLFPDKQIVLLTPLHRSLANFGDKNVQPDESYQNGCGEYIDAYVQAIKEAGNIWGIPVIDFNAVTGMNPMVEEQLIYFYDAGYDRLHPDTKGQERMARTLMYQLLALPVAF
Assay: The drug is tested on Bacteroides thetaiotaomicron strain: VPI-5482 for biotransformation. The drug concentrations were measured before and after a 12-h incubation by liquid-chromatography-coupled mass spectrometry (LC–MS)
Assay type: ADME
Set-up: dose 2 uM
Conditions: 2 µM

## C[C@]12CCC(=O)C=C1[C@@H]1C[C@@H]1[C@H]1[C@@H]3[C@@H]4C[C@@H]4[C@@]4(CCC(=O)O4)[C@@]3(C)CC[C@@H]12 [DROSPIRENONE]
  Bacterial Biotransformation: Compound NOT metabolized
